Assays:
Assay type in all cases: in vivo
rice (Oryza sativa) = assay: Test B flooded paddy test; conditions: for Plant response rating, Rice: Flood (flooded paddy test), 13 to 15 days
Procedure, shortened: (§1)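 Greenhouse-held for 13 to 15 days, treated pots were compared visually with controls and scored 0–100 (0, no effect). Treatment had been made into paddy water kept at 3 cm above the soil, with plants at the 2-leaf stage.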

[1] = tested on: barnyardgrass (Echinochloa crus-galli); assay: Test B flooded paddy test; conditions: for Plant response rating, Barnyardgrass: Flood (flooded paddy test), 13 to 15 days
Procedure, shortened: as §1

[2] = tested on: ducksalad (Heteranthera limosa); assay: Test B flooded paddy test; conditions: for Plant response rating, Ducksalad: Flood (flooded paddy test), 13 to 15 days
Procedure, shortened: as §1

[3] = tested on: umbrella sedge (Cyperus difformis); assay: Test B flooded paddy test; conditions: for Plant response rating, Sedge, Umbrella: Flood (flooded paddy test), 13 to 15 days
Procedure, shortened: as §1

kochia (Kochia scoparia) = assay: Test B pre-/postemergence plant response
Procedure, shortened: (§2)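 Plants treated either at seeding (loam/sand soil) or postemergence at 2 to 18 cm height, using a surfactant-containing non-phytotoxic solvent formulation. Evaluation was visual after 13 to 15 days, 0 to 100 scale relative to controls.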

wild oat (Avena fatua) = assay: Test B pre-/postemergence plant response
Procedure, shortened: as §2

[4] = tested on: johnsongrass (Sorghum halepense); assay: Test B pre-/postemergence plant response
Procedure, shortened: as §2

[5] = tested on: lambsquarters (Chenopodium album); assay: Test B pre-/postemergence plant response
Procedure, shortened: as §2

soybean (Glycine max) = assay: Test B pre-/postemergence plant response
Procedure, shortened: as §2

[6] = tested on: ragweed (common ragweed, Ambrosia elatior); assay: Test B pre-/postemergence plant response; conditions: Preemergence
Procedure, shortened: as §2

[7] = tested on: cocklebur (Xanthium strumarium); assay: Test B pre-/postemergence plant response
Procedure, shortened: as §2

[8] = tested on: giant foxtail (Setaria faberii); assay: Test B pre-/postemergence plant response
Procedure, shortened: as §2

[9] = tested on: bermudagrass (Cynodon dactylon); assay: Test B pre-/postemergence plant response
Procedure, shortened: as §2

[10] = tested on: green foxtail (Setaria viridis); assay: Test B pre-/postemergence plant response
Procedure, shortened: as §2

[11] = tested on: pigweed (Amaranthus retroflexus); assay: Test B pre-/postemergence plant response
Procedure, shortened: as §2

corn (Zea mays) = assay: Test B pre-/postemergence plant response
Procedure, shortened: as §2

[12] = 250 g ai/ha, flooded paddy test, visual rating on 0 to 100 scale (0 no effect, 100 complete control) after 13 to 15 days
[13] = 62 g ai/ha, scale of 0 to 100 where 0 is no effect and 100 is complete control
[14] = 125 g ai/ha, scale 0 to 100, 0 is no effect, 100 is complete control
[15] = Flood, 31 g ai/ha, scale 0 to 100 (0 no effect, 100 complete control)
[16] = Postemergence, 31 g ai/ha, 0 to 100 scale (0 no effect, 100 complete control)
[17] = Postemergence, 125 g ai/ha, scale 0 to 100 (0 no effect, 100 complete control)
[18] = Postemergence, 250 g ai/ha, scale 0 to 100 (0 no effect, 100 complete control), 13 to 15 days
[19] = Postemergence, 62 g ai/ha, scale 0 to 100 (0 no effect, 100 complete control)
[20] = Preemergence, 31 g ai/ha, scale 0 to 100 (0 no effect, 100 complete control)
[21] = Preemergence, 62 g ai/ha, scale 0 to 100, 0 no effect, 100 complete control
[22] = Preemergence, 125 g ai/ha, scale 0 to 100, 0 no effect, 100 complete control
[23] = Preemergence, 250 g ai/ha, 0 to 100 scale

CCCCn1c(C2CC2)ncc(C(=O)C2=C(O)CCCC2=O)c1=O [Compound 193]
Plant response rating, Flood, Rice (rice (Oryza sativa); [12]): 65
Plant response rating, Rice (rice (Oryza sativa); [13]): 15
Plant response rating, Rice (rice (Oryza sativa); [14]): 30
Rice plant response rating (rice (Oryza sativa); [15]): 0
Plant response rating, Flood, Barnyardgrass [1, 12]: 50
Plant response rating, Barnyardgrass [1, 13]: 20
Plant response rating, Barnyardgrass [1, 14]: 45
Barnyardgrass plant response rating [1, 15]: 0
Plant response rating, Flood, Ducksalad [2, 12]: 100
Plant response rating, Ducksalad [2, 13]: 50
Plant response rating, Ducksalad [2, 14]: 85
Ducksalad plant response rating [2, 15]: 40
Plant response rating, Flood, Sedge, Umbrella [3, 12]: 90
Plant response rating, Sedge, Umbrella [3, 13]: 30
Plant response rating, Sedge, Umbrella [3, 14]: 70
Sedge, Umbrella plant response rating [3, 15]: 0
Plant response rating, Kochia (kochia (Kochia scoparia); [16]): 20
Plant response rating, Kochia (kochia (Kochia scoparia); [17]): 100
Plant response rating, Kochia (kochia (Kochia scoparia); [18]): 100
Plant response rating, Kochia (kochia (Kochia scoparia); [19]): 80
Plant response rating, Kochia (kochia (Kochia scoparia); [20]): 20
Plant response rating, Kochia (kochia (Kochia scoparia); [21]): 70
Plant response rating, Kochia (kochia (Kochia scoparia); [22]): 80
Kochia plant response rating (kochia (Kochia scoparia); [23]): 90
Plant response rating, Oat, Wild (wild oat (Avena fatua); [16]): 0
Plant response rating, Oat, Wild (wild oat (Avena fatua); [18]): 75
Plant response rating, Oat, Wild (wild oat (Avena fatua); [19]): 50
Plant response rating, Oat, Wild (wild oat (Avena fatua); [20]): 5
Plant response rating, Oat, Wild (wild oat (Avena fatua); [21]): 5
Plant response rating, Oat, Wild (wild oat (Avena fatua); [22]): 30
Oat, Wild plant response rating (wild oat (Avena fatua); [23]): 60
Plant response rating, Johnsongrass [4, 16]: 50
Plant response rating, Johnsongrass [4, 17]: 70
Plant response rating, Johnsongrass [4, 18]: 80
Plant response rating, Johnsongrass [4, 19]: 65
Plant response rating, Johnsongrass [4, 20]: 0
Plant response rating, Johnsongrass [4, 21]: 0
Plant response rating, Johnsongrass [4, 22]: 15
Johnsongrass plant response rating [4, 23]: 60
Plant response rating, Lambsquarters [5, 16]: 98
Plant response rating, Lambsquarters [5, 17]: 98
Plant response rating, Lambsquarters [5, 18]: 100
Plant response rating, Lambsquarters [5, 19]: 98
Plant response rating, Lambsquarters [5, 20]: 100
Plant response rating, Lambsquarters [5, 21]: 100
Plant response rating, Lambsquarters [5, 22]: 100
Lambsquarters plant response rating [5, 23]: 100
Plant response rating, Soybean (soybean (Glycine max); [16]): 80
Plant response rating, Soybean (soybean (Glycine max); [18]): 100
Plant response rating, Soybean (soybean (Glycine max); [19]): 98
Plant response rating, Soybean (soybean (Glycine max); [20]): 40
Plant response rating, Soybean (soybean (Glycine max); [21]): 60
Plant response rating, Soybean (soybean (Glycine max); [22]): 60
Soybean plant response rating (soybean (Glycine max); [23]): 80
Plant response rating, Ragweed ([6]; 31 g ai/ha, scale 0 to 100 (0 no effect, 100 complete control)): 100
Plant response rating, Ragweed ([6]; 62 g ai/ha, scale 0 to 100, 0 no effect, 100 complete control): 100
Plant response rating, Ragweed ([6]; 125 g ai/ha, scale 0 to 100, 0 no effect, 100 complete control): 100
Ragweed plant response rating ([6]; 250 g ai/ha, 0 to 100 scale): 100
Plant response rating, Cocklebur [7, 16]: 95
Plant response rating, Cocklebur [7, 17]: 100
Plant response rating, Cocklebur [7, 18]: 100
Plant response rating, Cocklebur [7, 19]: 95
Plant response rating, Cocklebur [7, 21]: 75
Cocklebur plant response rating [7, 23]: 95
Plant response rating, Foxtail, Giant [8, 16]: 75
Plant response rating, Foxtail, Giant [8, 17]: 95
Plant response rating, Foxtail, Giant [8, 18]: 100
Plant response rating, Foxtail, Giant [8, 19]: 85
Plant response rating, Foxtail, Giant [8, 20]: 0
Plant response rating, Foxtail, Giant [8, 21]: 65
Plant response rating, Foxtail, Giant [8, 22]: 70
Foxtail, Giant plant response rating [8, 23]: 80
Plant response rating, Bermudagrass [9, 16]: 95
Plant response rating, Bermudagrass [9, 17]: 100
Plant response rating, Bermudagrass [9, 18]: 100
Plant response rating, Bermudagrass [9, 19]: 100
Plant response rating, Bermudagrass [9, 20]: 75
Plant response rating, Bermudagrass [9, 21]: 95
Plant response rating, Bermudagrass [9, 22]: 95
Bermudagrass plant response rating ([9]; Preemergence, 250 g ai/ha, 0 to 100 scale, 0 no effect, 100 complete control): 98
Plant response rating, Foxtail, Green [10, 16]: 40
Plant response rating, Foxtail, Green [10, 17]: 60
Plant response rating, Foxtail, Green [10, 18]: 80
Plant response rating, Foxtail, Green [10, 19]: 50
Plant response rating, Foxtail, Green [10, 20]: 5
Plant response rating, Foxtail, Green [10, 21]: 50
Plant response rating, Foxtail, Green [10, 22]: 50
Foxtail, Green plant response rating [10, 23]: 98
Plant response rating, Pigweed [11, 16]: 90
Plant response rating, Pigweed [11, 18]: 100
Plant response rating, Pigweed [11, 19]: 95
Plant response rating, Pigweed [11, 20]: 98
Plant response rating, Pigweed [11, 21]: 100
Plant response rating, Pigweed [11, 22]: 100
Pigweed plant response rating [11, 23]: 100
Plant response rating, Corn (corn (Zea mays); [16]): 0
Plant response rating, Corn (corn (Zea mays); [17]): 40
Plant response rating, Corn (corn (Zea mays); [18]): 60
Plant response rating, Corn (corn (Zea mays); [19]): 15
Plant response rating, Corn (corn (Zea mays); [20]): 0
Plant response rating, Corn (corn (Zea mays); [21]): 0
Plant response rating, Corn (corn (Zea mays); [22]): 5
Corn plant response rating (corn (Zea mays); [23]): 5

Source: patent US8952024B2, “Herbicidal pyrimidone derivatives” (E I du Pont de Nemours and Company, priority 2009, dated 2015)
